Columns and labels:
Format in all cases: in vivo
[1] = system: intact hairless mouse skin; assay: Transepidermal water loss after topical application; settings: BrCBE 325 nmol topical once daily, after four daily applications
Experimental: (§1) To determine whether inhibitors of β-glucocerebrosidase would cause more profound effects than applications of exogenous GlcCER alone (examples 5&6), we next applied the specific, suicide inhibitor, bromoconduritol-B-epoxide (BrCBE) to intact hairless mouse skin (Simonsen Laboratories, Gilroy, Calif.) (Holleran, W. M. et al., J. Clin. Invest. (1993) 91:1656-1664). BrCBE (325 nmol in 20 μl propylene glycol:ethanol, 7:3 vols) was applied once daily for 0-14 days. (Holleran, W. M. et al. (1994) J. Clin. Inv. 93:1756-1764)
Transepidermal Water Loss was determined by using a MEECO electrolytic water analyzer (MEECO, Warrington, Pa.). Water loss measurements are recorded over a small area of skin (0.5cm^2) in parts per million/0.5cm^2 per hour over background.

hairless mouse epidermis = assay: Epidermal / stratum corneum lipid content (HPTLC/TLC)
Experimental: Hairless mice were treated with BrCBE for 5 days as described in Example 10. The following high performance thin layer chromatograph (HPTLC) system was developed for optimal separation of ceramides and glucosylceramides for quantitation by spectrodensitometry. Extracts were applied to precleaned 10 ×20 cm HPTLC plates, 0.5 cm from lower edge of the plate and fractionated sequentially in a horizontal developmental chamber (Camag, Muttenz, Switzerland) in the following solvent systems: 1) chloroform:methanol:acetic acid (190:9:1), v/v/v) to the top, twice; 2) chloroform:methanol:acetone (76:20:4, by volume) to 30 mm. Between each development, the plate was dried for 5 minutes on a hot plate (40° C.), cooled for 2 minutes, and equilibrated in the tank with the solvents for 3 minutes. After final development, the plates were dried, cooled, dipped in charring solution (1.5% cupric sulfate in acetic acid:sulfuric acid:orthophosphoric acid:water (50:10:10:30, by volume) for 15 seconds, dried (40° .C) for 5 minutes, and then charred at 180° C. for 15 minutes. Plates were scanned with a variable wavelength scanning densitometer (Camag, Muttenz, Switzerland). Lipid amounts for each fraction were estimated using ceramides 3 and 4, and galactosylceramides 1 and 2 as reference standards (Sigma Chemical Co., St. Louis, Mo.).
The epidermal glucosylceramide content was determined in mice treated with the topical β-glucocerebrosidase inhibitors. Mice were treated with CBE for one day as described in FIG. 22. The mice were sacrificed and whole skin was excised. Subcutaneous fascia and fat were scraped off, and the samples were placed dermis side down onto […] EDTA in PBS-CMF (pH 7.4) and incubated at 37° C. for 40 min. Skin was blotted dry with a tissue and the epidermis was removed by scraping with a surgical blade. The epidermis was minced, placed into microcentrifuge vials, immediately snap frozen and stored in liquid N2 until extracted.
For extraction the tissue was soaked in 7.6 ml Bligh/Dyer extraction media (2 ml chloroform, 4 ml Methanol, 1.6 ml H2O) overnight at room temperature. The following day the tissue was shaken for 20 min. and centrifuged for 10 min. the solvent was removed and the pellet was combined with 7.6 ml Bligh/Dyer media and again shaken and centrifuged. The solvents were combined with solvent from the soaks and filtered through pre-solvent-washed Whatman 43 filter paper, 2 ml chloroform and 2 ml H2O was added to each 7.6 ml quantity of the filtrate and shaken for 10 min. The samples were then centrifuged and the upper phase discarded. The lower phase was washed with 4 ml chloroform, 4 ml MetOH, and 3.6 ml H2O (shaken for 10 min and centrifuged). The upper phase was discarded. The lower phase was dried under N2 in a 47° C. water bath. The lipid was resuspended in chloroform and weighed on the Cahn balance.
TLC was performed using 15-20 μg samples and quantitated against standard glycosylceramide and 40 μg sample for sphingolipids (Holleran, W. M. et al. (1993) J. Clin. Invest. 91:1656-1664).
Both glucosylceramide and ceramide content was then determined in lower (stratum basale) and upper (stratum spinosum, stratum granulosum and stratum corneum) epidermis (FIG. 23). Following 24 hours of CBE treatment samples were excised following treatment (as in Example 16).

β-glucocerebrosidase = target: T1, β-glucocerebrosidase (Mus musculus, UniProt P17439); assay: Epidermal β-glucocerebrosidase activity after topical BrCBE; settings: topical BrCBE 325 nmol once daily
T1 construct: from tissue; host or cells: epidermis of hairless mice (Simonsen Laboratories, Gilroy, Calif.)
T1 sequence (P17439 20-515): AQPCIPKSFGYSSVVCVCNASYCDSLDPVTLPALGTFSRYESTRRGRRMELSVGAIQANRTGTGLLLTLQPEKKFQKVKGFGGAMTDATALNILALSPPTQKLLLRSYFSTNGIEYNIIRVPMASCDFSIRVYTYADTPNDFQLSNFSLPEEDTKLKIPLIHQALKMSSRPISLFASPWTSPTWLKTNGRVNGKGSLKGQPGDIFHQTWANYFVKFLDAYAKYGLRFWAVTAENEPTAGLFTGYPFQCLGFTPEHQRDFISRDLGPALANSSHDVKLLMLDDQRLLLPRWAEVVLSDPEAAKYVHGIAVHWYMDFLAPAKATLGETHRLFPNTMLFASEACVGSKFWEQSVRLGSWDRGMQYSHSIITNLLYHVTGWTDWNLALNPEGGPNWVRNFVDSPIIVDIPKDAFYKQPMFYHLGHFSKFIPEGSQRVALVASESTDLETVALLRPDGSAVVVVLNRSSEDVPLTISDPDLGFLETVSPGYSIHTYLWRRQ
Experimental: as §1

hairless mouse skin = assay: Appearance and texture of treated skin
Experimental: as §1

[2] = BrCBE 325 nmol/5cm^2/day, five days

OC1C(O)C(Br)C2OC2C1O (stereo not shown) [BrCBE, bromoconduritol-B-epoxide]
TEWL plateau level (defect in permeability barrier function) [1]: 10-15 times normal | ceramide content, whole epidermis lipid extracts (hairless mouse epidermis; [2]): decrease | epidermal glucosylceramides, whole epidermis lipid extracts (hairless mouse epidermis; [2]): increased | increase in stratum corneum glucosylceramides (hairless mouse epidermis; BrCBE 5 days, vs vehicle-treated and/or untreated murine stratum corneum, FIG. 14): eight to ten | epidermal β-glucocerebrosidase activity, of normal (β-glucocerebrosidase): 5 % of normal | reduction of epidermal β-glucocerebrosidase activity (β-glucocerebrosidase): about 95% | inflammation or edema (hairless mouse skin; BrCBE-treated skin): no indication of inflammation or edema | skin moisture content (hairless mouse skin; BrCBE-treated skin): increased moisture content | skin smoothness and softening of skin surface (hairless mouse skin; BrCBE-treated skin): marked increase | skin wrinkling (hairless mouse skin; BrCBE-treated vs vehicle-treated skin, visual inspection): reduced

— patent US6399580B1, “Methods and compositions for stimulating tissue growth and epithelial moisturization” (The Regents of the University of California, priority 1994, dated 2002)
